Experimental data reported in patent US8697630B2, “Method for lowering insulin resistance” (Nestec S.A., priority 2005, dated 2014).

Columns and labels:
[1] = tested on: Wild Type C57BL/6J mice; assay: Study 2/5: increasing 18:2 PUFA, insulin sensitivity; format: in vivo; details: 18:2 at 2%, 4%, 6% en; WT mice
Text: Studies 2 and 5 were combined (n=18) where we compared TYPE B Leptr (−/−) (Study2) with the Wild Type mouse (Study 5) used in the backcross for Leptr (−/−), i.e., C57BL/6J. Here, we also examined the effects of food restriction on TYPE B (which over eat like TYPE A because neither have leptin receptors) and added the design of increasing 18:2 PUFA (increments at 2%, 4%, 6% en) while assessing the insulin sensitivity response. […] They had lower glucose than TYPE A, better insulin testing, yet became obese and insulin resistant, glucose intolerant, etc. […] This was the second clue (after n 3 FA in Study 1) that the type and mass of fatty acid intake can have a big influence on mouse insulin dynamics.

[2] = 1.5 mmole ingested, cited from earlier work
[3] = target: T1, glucose transporter (Homo sapiens, UniProt P11166); details: cited from earlier work
T1 construct: various catechins tested on glucose transport from erythrocytes
T1 sequence (P11166 1-492): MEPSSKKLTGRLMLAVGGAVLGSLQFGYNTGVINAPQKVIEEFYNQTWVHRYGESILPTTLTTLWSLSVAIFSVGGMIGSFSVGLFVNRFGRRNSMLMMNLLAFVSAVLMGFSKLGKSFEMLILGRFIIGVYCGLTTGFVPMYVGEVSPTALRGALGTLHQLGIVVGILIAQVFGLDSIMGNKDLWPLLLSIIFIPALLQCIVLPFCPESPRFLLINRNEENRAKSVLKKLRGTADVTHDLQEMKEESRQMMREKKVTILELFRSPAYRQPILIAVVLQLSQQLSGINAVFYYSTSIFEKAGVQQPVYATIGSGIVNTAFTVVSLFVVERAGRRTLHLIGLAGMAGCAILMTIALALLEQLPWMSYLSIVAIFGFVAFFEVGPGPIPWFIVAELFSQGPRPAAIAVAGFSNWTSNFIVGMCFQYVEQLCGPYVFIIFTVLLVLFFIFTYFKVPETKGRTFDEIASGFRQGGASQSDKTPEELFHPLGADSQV

[4] = tested on: Zucker fa/fa rats; details: 100 mg/kg for 3-weeks; vs control obese rats; cited from earlier work
[5] = tested on: STZ-induced diabetic rats; details: following intravenous insulin tolerance testing; cited from earlier work
[6] = tested on: Type 2 diabetics; details: cited from earlier work
[7] = tested on: healthy subjects; details: 50 g; cited from earlier work
[8] = tested on: diabetic subjects; details: cited from earlier work; for plasma glucose peak level / time of plasma glucose peak: diabetic subjects; for change in insulin concentration: in vivo
[9] = tested on: adults; details: estimated; cited from earlier work
[10] = tested on: ApoE (−/−) mice; assay: Study 14: plasma total cholesterol, retinol, tocopherol; format: in vivo; details: 0.5 g/kg in 0.08% cholesterol diet vs same diet without statin; 14 weeks
Text: The objective of this study was to investigate the effect of a statin (Mevacor) on cholesterol levels. Each of three groups of ApoE (−/−) mice was fed one of three diets, each diet containing a different cholesterol level (i.e., 0, 0.4, and 0.8 g/kg). A fourth group was fed the diet containing 0.8 g/kg of cholesterol with the further inclusion of 0.5 g/kg of a statin (i.e., Mevacor).

[11] = tested on: alloxan diabetic rats; details: after six weeks; extract 100 mg/kg; cited from earlier work
[12] = tested on: 3T3-L1 cells; details: 240 nmol/L; cited from earlier work
[13] = target: T2, protein tyrosine phosphatase-1B (Homo sapiens, UniProt P18031); details: cited from earlier work
T2 sequence (P18031 1-435): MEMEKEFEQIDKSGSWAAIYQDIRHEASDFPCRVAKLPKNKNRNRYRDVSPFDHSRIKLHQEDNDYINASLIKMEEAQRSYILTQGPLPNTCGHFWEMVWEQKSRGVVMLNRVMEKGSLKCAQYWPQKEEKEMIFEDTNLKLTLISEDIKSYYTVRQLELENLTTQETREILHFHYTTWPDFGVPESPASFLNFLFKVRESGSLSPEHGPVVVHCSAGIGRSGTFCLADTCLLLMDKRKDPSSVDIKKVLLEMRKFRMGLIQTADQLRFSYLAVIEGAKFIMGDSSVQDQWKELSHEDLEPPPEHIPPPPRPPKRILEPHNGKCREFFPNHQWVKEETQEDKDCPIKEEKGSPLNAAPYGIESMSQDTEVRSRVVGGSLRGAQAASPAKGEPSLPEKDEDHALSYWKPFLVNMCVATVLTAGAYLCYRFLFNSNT

CCCCC/C=C\C/C=C\CCCCCCCC(=O)O [18:2, linoleic acid]
sensitivity to insulin [1]: appeared to increase sensitivity to insulin

O=C(O[C@@H]1Cc2c(O)cc(O)cc2O[C@@H]1c1cc(O)c(O)c(O)c1)c1cc(O)c(O)c(O)c1 [EGCG, epigallocatechin gallate]
Peak maximum [2]: 1.3 μmol. 1-1 | detection in the urine [2]: not detected | elimination T1/2 ([2]; ten healthy volunteers): 3.9 h | increase of affinity for the glucose transporter over EGC [3]: 2 to 4 orders of magnitude

C[C@@H]([C@H](C)O)[C@H](N)C(=O)O [ID-1101, 4-hydroxyisoleucine]
hyperinsulinemia [4]: reduced hyperinsulinemia

O=C(O)CCCCC1CCSS1 (stereo not shown) [LA, Lipoic acid]
reduction in the area under the glucose curve [5]: 13% | reduction of lactate and pyruvate after oral glucose loading ([6]; 1200 mg LA (oral) for 4-wks): 45% | improvement of insulin sensitivity ([6]; 600, 1200 and 1800 mg/d oral): 17% | oral dose reported to be safe ([6]; given as 3 doses of 600 mg): up to 1800 mg/d

OC[C@H]1O[C@H](OC[C@H]2OC(O)(CO)[C@@H](O)[C@@H]2O)[C@H](O)[C@@H](O)[C@@H]1O (stereo partly shown) [isomaltulose]
blood glucose peak [7]: 110.9 ± 4.9 mg/dL | time of blood glucose peak [7]: 60 min | plasma glucose peak level [8]: 195 ± 14 mg/dL | time of plasma glucose peak [8]: 120 min | change in insulin concentration [8]: 41.1 ± 7.4 µU/mL | minimum effect dose (mental concentration) [9]: more than 5 g

CC[C@H](C)C(=O)O[C@H]1C[C@@H](C)C=C2C=C[C@H](C)[C@H](CC[C@@H]3C[C@@H](O)CC(=O)O3)[C@H]21 [statin]
liver, aortal, and plasma cholesterol levels [10]: significant reduction

OC[C@H]1O[C@@](CO)(O[C@H]2O[C@H](CO)[C@@H](O)[C@H](O)[C@H]2O)[C@@H](O)[C@@H]1O [sucrose]
blood glucose peak [7]: 143.3 ± 8.8 mg/dL | time of blood glucose peak [7]: 30 min | plasma glucose peak level [8]: 237 ± 12 mg/dL | time of plasma glucose peak [8]: ≤ 60 min | change in insulin concentration [8]: 59.3 ± 12 µU/mL

insulin: insulin
decrease in fasting blood glucose [11]: -183.1 mg/dL | greatest glucose uptake relative to maximum uptake observed with BE [12]: 2.7 times

methylhydroxychalcone polymer [MHCP]
inhibition of protein tyrosine phosphatase-1B [13]: inhibits
